Assay results: patent publication US20240417410A1, “TRICYCLIC COMPOUNDS FOR THE TREATMENT OF CANCER” (Hoffmann-La Roche Inc., priority 2023, published 2024)

Assays:
[1] = tested on: Miapaca-2 KRAS G12C + A59T; assay: Stable KRAS mutant cell line viability assay (CellTiter-Glo); format: cell-based; conditions: Miapaca-2 mutant cells, 3 d
Source text: (§1) The aim of the study was to determine the potency and efficacy of compounds for cell proliferation using CellTiter-Glo® (CTG) Luminescent Cell Viability Assay (Promega Corp., Madison, WI). We cloned 14 KRAS^G12C variant sequences with secondary mutations (V8A, V9Y, S17E, T58I, A59T, S65W, R68S, D69P, M72I, D92R, H95N, Y96D, Q99W and F156L) into the Miapaca-2. Totally 14 stable Miapaca-2 mutant cell lines were established through lentivirus infection. For the cell viability assay, cells were dosed with compounds in a 9-point dose-response using a 4 fold dilution series at a top dose of 10 μM. KRAS mutant cells were maintained in DMEM+10% FBS+2.5% HI Horse serum+1% PS+1 μg/mL Puromycin and seeded into 96-well plates at 800-1,500 cells per well 24 h before compound addition and then incubated with compound for 3 d before assaying viability (CellTiter-Glo, Promega). Assays were performed in biological duplicates. Nonlinear regression curves were fitted using Xfit. IC50 (absolute IC50) is the dose at which the estimated viability is 50% relative to untreated wells.

[2] = tested on: Miapaca-2 KRAS G12C + D92R; assay: as above; format: cell-based; conditions: Miapaca-2 mutant cells, 3 d
Source text: as §1

[3] = tested on: Miapaca-2 KRAS G12C + F156L; assay: as above; format: cell-based; conditions: Miapaca-2 mutant cells, 3 d
Source text: as §1

[4] = tested on: Miapaca-2 KRAS G12C + H95N; assay: as above; format: cell-based; conditions: Miapaca-2 mutant cells, 3 d
Source text: as §1

[5] = tested on: Miapaca-2 KRAS G12C + M72I; assay: as above; format: cell-based; conditions: Homo sapiens, MIA PaCa-2, 72 h; Miapaca-2 mutant cells, 3 d
Source text: as §1

[6] = tested on: Miapaca-2 KRAS G12C + Q99W; assay: as above; format: cell-based; conditions: Miapaca-2 mutant cells, 3 d
Source text: as §1

[7] = tested on: Miapaca-2 KRAS G12C + R68S; assay: as above; format: cell-based; conditions: Miapaca-2 mutant cells, 3 d
Source text: as §1

[8] = tested on: Miapaca-2 KRAS G12C + S17E; assay: as above; format: cell-based; conditions: Miapaca-2 mutant cells, 3 d
Source text: as §1

[9] = tested on: Miapaca-2 KRAS G12C + S65W; assay: as above; format: cell-based; conditions: Miapaca-2 mutant cells, 3 d
Source text: as §1

[10] = tested on: Miapaca-2 KRAS G12C + T58I; assay: as above; format: cell-based; conditions: Miapaca-2 mutant cells, 3 d
Source text: as §1

[11] = tested on: Miapaca-2 KRAS G12C + V8A; assay: as above; format: cell-based; conditions: Miapaca-2 mutant cells, 3 d
Source text: as §1

[12] = tested on: Miapaca-2 KRAS G12C + V9Y; assay: as above; format: cell-based; conditions: Miapaca-2 mutant cells, 3 d
Source text: as §1

[13] = tested on: Miapaca-2 KRAS G12C + Y96D; assay: as above; format: cell-based; conditions: Miapaca-2 mutant cells, 3 d
Source text: as §1

[14] = tested on: NCI-H1373-luc intracranial tumors; assay: Brain metastasis intracranial model, efficacy (bioluminescence); format: in vivo
Source text: The purpose of this assay is to determine whether brain exposure of the compounds of current invention was sufficient to mediate regression of tumors in experimental Brain Metastases (BM) models.
NCI-H1373 cell line was purchased from the ATCC (CRL-5866). NCI-H1373-Luc cells were generated by WuXi AppTec. For generating NCI-H1373-Luc cell line, NCI-H1373 cells were transduced with GFP-Luc-puro lentivirus vector (HBLV-1014, HANBIO, carrying cDNA coding for firefly luciferase) and then selected with 1 μg/mL puromycin. All cells were authenticated by short tandem repeat fingerprinting, and periodically tested to be Mycoplasma free. H1373-luc cells were cultured in medium containing RPMI1640 (Thermo Fisher Scientific) plus 10% Fetal Bovine Serum (FBS, Thermo Fisher Scientific, 2.5 μg/mL puromycin and 1% Antibiotic-Antimycotic (Thermo Fisher Scientific), at 37° C. in an atmosphere of 5% CO2 in air. The medium was renewed every 2 to 3 days and tumor cells were routinely sub-cultured at a confluence of 80-90%. Cells growing in an exponential growth phase were harvested and counted for inoculation.
Murine studies were conducted at the WuXi AppTec and were performed in compliance with all applicable regulations and guidelines of the Institutional Animal Care and Use Committee (IACUC). Mice were maintained in a special pathogen-free environment and in individual ventilation cages, and food and water will be sterilized before use. 8 to 9 weeks female NU/NU nude mice (Charles River Lab.) were implanted intracarotid injection with 0.5×10^5 NCI-H1373-Luc cells in 100 μL serum-free media. When bioluminescence reached a mean of 1.28E+08 photons/second (range of 5.79E+07-2.685E+08 photons/second) at day 15 post inoculation, tumor-bearing mice were randomized into different groups with 4 mice in each group. The randomization date was denoted as treatment day 0. Afterwards, oral daily dosing of vehicle or Example 24 began and continued for 14 days. Baseline bioluminescent imaging (BLI) began 24 hours prior to initial dosing with vehicle or test articles, and additional imaging time points for all animals were measured twice a week by Xenogen machine (PerkinElmer IVIS Lumina II) between 0-14 days post grouping. […]
TGI (tumor growth inhibition) was calculated for each group using the formula: TGI (%)=[1−(Ti−T0)/(Vi−V0)]×100; Ti is the average tumor bioluminescence of a treatment group on a given day, T0 is the average tumor bioluminescence of the treatment group on the day of treatment start, Vi is the average tumor bioluminescence of the vehicle control group on the same day with Ti, and V0 is the average tumor bioluminescence of the vehicle group on the day of treatment start. […]

[15] = day 14, 30 mg/kg, PO, QD, NCI-H1373-luc intracranial

CO[C@@H](C)c1ncc(N2CCN(C)CC2)cc1-c1c2c3cc(cc4c3n1CCC4)-c1csc(n1)C[C@H](NC(=O)[C@H]1[C@H](C)[C@@H]1C)C(=O)N1CCC[C@H](N1)C(=O)OCC(C)(C)C2 (atropisomer, axis not shown; (M)) [Example 24, (1r,2R,3S)-N-[(7S,13S)-(20M)-20-[2-[(1S)-1-methoxyethyl]-5-(4-methylpiperazin-1-yl)-3-pyridyl]-17,17-dimethyl-8,14-dioxo-15-oxa-4-thia-9,21,30,31-tetrazahexacyclo[23.3.1.1^2,5.1^9,13.0^19,27.0^21,26]hentriaconta-1 (28),2,5 (31), 19,25 (29),26-hexaen-7-yl]-2,3-dimethyl-cyclopropanecarboxamide]
IC50 [1]: 6 nM
IC50 [2]: 2 nM
IC50 [3]: 1 nM
IC50 [4]: 1 nM
IC50 [5]: 1 nM
IC50 [6]: 5 nM
IC50 [7]: 2 nM
IC50 [8]: 3 nM
IC50 [9]: 1 nM
IC50 [10]: 2 nM
IC50 [11]: 1 nM
IC50 [12]: 1 nM
IC50 [13]: 2 nM
tolerability (overt toxicity, animal weight) ([14]; 30 mg/kg once daily for 14 days, NCI-H1373-luc intracranial model): no sign of overt toxicity or animal weight loss
ROI [14, 15]: 1.34 ± 0.75 ×10^7 photon/s
T/C [14, 15]: 0.52%
TGI [14, 15]: 104.68%
